Results: PMC3348126, “Pharmacogenetics Meets Metabolomics: Discovery of Tryptophan as a New Endogenous OCT2 Substrate Related to Metformin Disposition” (PLoS ONE, 2012)
Values belong to the compound of their own block, whether it stands above or below them.

What was measured:
Assay type in all cases: cell-based
[1] = target: T1, Organic cation transporter 2 (OCT2) (Homo sapiens, UniProt O15244); assay: [3H]MPP+ uptake ([…]) in OCT2-expressing oocytes, water-injected background subtracted
T1 construct: gene SLC22A2

[2] = target: T2, Organic cation transporter 2 (OCT2) (Homo sapiens, UniProt O15244); assay: inhibition of [3H]MPP+ uptake in OCT2-expressing oocytes
T2 construct: gene SLC22A2; OCT2 expressed in oocytes
T2 sequence (O15244 1-555): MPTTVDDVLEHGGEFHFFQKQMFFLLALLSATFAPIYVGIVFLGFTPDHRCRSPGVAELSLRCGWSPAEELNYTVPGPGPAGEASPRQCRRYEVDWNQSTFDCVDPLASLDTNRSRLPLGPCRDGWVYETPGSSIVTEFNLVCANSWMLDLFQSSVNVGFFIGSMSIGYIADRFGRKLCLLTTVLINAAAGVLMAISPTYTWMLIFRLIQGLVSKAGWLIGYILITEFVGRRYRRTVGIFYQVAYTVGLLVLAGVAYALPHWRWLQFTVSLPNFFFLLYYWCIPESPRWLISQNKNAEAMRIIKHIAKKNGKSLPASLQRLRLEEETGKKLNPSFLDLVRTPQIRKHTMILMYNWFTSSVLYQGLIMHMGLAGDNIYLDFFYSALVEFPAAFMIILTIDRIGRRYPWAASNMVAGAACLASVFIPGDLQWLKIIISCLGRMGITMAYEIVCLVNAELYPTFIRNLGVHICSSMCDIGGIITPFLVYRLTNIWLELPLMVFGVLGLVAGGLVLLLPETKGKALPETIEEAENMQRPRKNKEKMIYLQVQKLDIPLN

[3] = target: T3, OCT1 (Homo sapiens, UniProt O15245); assay: inhibition of OCT1-mediated [3H]MPP+ uptake and direct tryptophan uptake in oocytes; settings: read-out: % inhibition at 1 mM
T3 construct: gene SLC22A1; OCT1 expressed in oocytes (pcDNA3.1-OCT1)
T3 sequence (O15245 1-554): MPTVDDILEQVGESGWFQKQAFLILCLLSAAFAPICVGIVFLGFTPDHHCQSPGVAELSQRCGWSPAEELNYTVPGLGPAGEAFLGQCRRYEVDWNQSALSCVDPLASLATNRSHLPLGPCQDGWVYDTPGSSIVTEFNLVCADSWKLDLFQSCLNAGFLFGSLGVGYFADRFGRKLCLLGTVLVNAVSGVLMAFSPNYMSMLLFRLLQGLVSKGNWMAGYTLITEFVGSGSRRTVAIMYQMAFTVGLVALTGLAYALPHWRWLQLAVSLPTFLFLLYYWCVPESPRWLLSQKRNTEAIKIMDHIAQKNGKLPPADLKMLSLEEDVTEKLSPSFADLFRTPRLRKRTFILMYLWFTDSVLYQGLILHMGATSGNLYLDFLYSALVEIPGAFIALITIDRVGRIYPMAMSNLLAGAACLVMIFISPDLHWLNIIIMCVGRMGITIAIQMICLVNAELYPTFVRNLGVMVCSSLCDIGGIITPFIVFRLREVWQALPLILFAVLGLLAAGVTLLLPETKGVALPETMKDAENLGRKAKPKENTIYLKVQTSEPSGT

[4] = target: T1, Organic cation transporter 2 (OCT2); assay: inhibition of [3H]MPP+ uptake and direct [3H]tryptophan uptake in OCT2-expressing oocytes
[5] = target: T4, Organic cation transporter 2 (OCT2) 808G>T variant (Homo sapiens, UniProt O15244); assay: [3H]tryptophan uptake ([…]) in oocytes expressing the variant
T4 construct: gene SLC22A2; OCT2 808G>T variant expressed in oocytes
T4 sequence (O15244 1-555): T2 sequence (O15244 1-555)

Structure (SMILES): C[n+]1ccc(-c2ccccc2)cc1 [MPP+]
- [3H]MPP+ uptake (18.5 nM) in OCT2-expressing oocytes, water-injected background [1]: 2.9 fmol/min/oocyte

- IC50 [2]: 51.5 mM
Structure (SMILES): O=c1ccn([C@@H]2O[C@H](CO)[C@@H](O)[C@H]2O)c(=O)[nH]1 [uridine]

Structure (SMILES): N[C@@H](Cc1c[nH]c2ccccc12)C(=O)O [L-tryptophan]
- inhibition at 1000 µM [3]: 50%
- IC50 [4]: 6.11 mM
- [3H]tryptophan uptake (100 nM) in oocytes expressing the variant [5]: 0.14 fmol/min/oocyte
